The NIST ThermoML archive (doi:10.1021/je049612f)

Conditions: Gas, Vibrating wire viscometry

FS(F)(F)(F)(F)F [sulfur hexafluoride]
Conditions | viscosity [mPa·s]
321 K, 1893.8 kPa | 0.01729
321 K, 1930.7 kPa | 0.01734
321 K, 2004.9 kPa | 0.01743
321 K, 2041.9 kPa | 0.01747
321 K, 2120.4 kPa | 0.01758
321 K, 2221.3 kPa | 0.01772
321 K, 2270.3 kPa | 0.0178
321 K, 2332.7 kPa | 0.0179
321 K, 2373.2 kPa | 0.01797
321 K, 2451.3 kPa | 0.01812
321 K, 2534.7 kPa | 0.01826
321 K, 2581.9 kPa | 0.01837
321 K, 2629.5 kPa | 0.01846
321 K, 2688.1 kPa | 0.0186
321 K, 2803.9 kPa | 0.01888
321 K, 2873.5 kPa | 0.01908
321 K, 2959.1 kPa | 0.01932
321 K, 3050 kPa | 0.01963
321 K, 3136.6 kPa | 0.01995
321 K, 3229.6 kPa | 0.02035
321 K, 3282 kPa | 0.0206
321 K, 3384.4 kPa | 0.02117
321 K, 3445.9 kPa | 0.02156
321 K, 3498.8 kPa | 0.02195
321 K, 3558.3 kPa | 0.02244
321 K, 3606.1 kPa | 0.02294
321 K, 3651.4 kPa | 0.02346
321 K, 3695.6 kPa | 0.02407
321 K, 3729.2 kPa | 0.02462
321 K, 3765.4 kPa | 0.0253
321 K, 3793.6 kPa | 0.026
321 K, 3819.6 kPa | 0.02674
321 K, 3858.5 kPa | 0.02827
321 K, 3887.8 kPa | 0.0299
321 K, 3899.4 kPa | 0.03104
321 K, 3910.1 kPa | 0.03218
321 K, 3918.4 kPa | 0.03355
321 K, 3926.6 kPa | 0.03481
321 K, 3933.3 kPa | 0.03615
321 K, 3938.4 kPa | 0.03743
321 K, 3945.7 kPa | 0.03995
321 K, 3950.6 kPa | 0.04131
321 K, 3955.4 kPa | 0.04272
321 K, 3961 kPa | 0.04435
321 K, 3968.8 kPa | 0.04638
321 K, 3977 kPa | 0.04813
321 K, 3988.3 kPa | 0.05018
321 K, 4001.1 kPa | 0.05214
321 K, 4020.8 kPa | 0.05448
321 K, 4046.8 kPa | 0.05683
321 K, 4077.1 kPa | 0.05902
321 K, 4112.9 kPa | 0.06125
321 K, 4160 kPa | 0.0635
321 K, 4223.8 kPa | 0.06599
321 K, 4349.4 kPa | 0.07
321 K, 4465.5 kPa | 0.07305
321 K, 4601.3 kPa | 0.07606
321 K, 4740.5 kPa | 0.07859
321 K, 4879.1 kPa | 0.08093
321 K, 5134 kPa | 0.08474
321 K, 5554.1 kPa | 0.09001
321 K, 5938 kPa | 0.09416
321 K, 6388.7 kPa | 0.09845
321 K, 7256.2 kPa | 0.1057
321 K, 7905.1 kPa | 0.1105
321 K, 8647.5 kPa | 0.1154
321 K, 9548.1 kPa | 0.1212
321 K, 10352 kPa | 0.1258
321 K, 11075 kPa | 0.1297
333.15 K, 91.55 kPa | 0.01681
333.15 K, 113.58 kPa | 0.01682
333.15 K, 142.52 kPa | 0.01682
333.15 K, 172.42 kPa | 0.01683
333.15 K, 198.48 kPa | 0.01684
333.15 K, 218.78 kPa | 0.01685
333.15 K, 243.22 kPa | 0.01685
333.15 K, 275.2 kPa | 0.01686
333.15 K, 294.03 kPa | 0.01686
333.15 K, 319.41 kPa | 0.01687
333.15 K, 350.89 kPa | 0.01688
333.15 K, 378.94 kPa | 0.01689
333.15 K, 416.93 kPa | 0.0169
333.15 K, 443.4 kPa | 0.01691
333.15 K, 479.64 kPa | 0.01692
333.15 K, 506.6 kPa | 0.01693
333.15 K, 547.64 kPa | 0.01694
333.15 K, 590.65 kPa | 0.01695
333.15 K, 636.15 kPa | 0.01697
333.15 K, 671.18 kPa | 0.01698
333.15 K, 717.74 kPa | 0.017
333.15 K, 772.31 kPa | 0.01703
333.15 K, 837.79 kPa | 0.01705
333.15 K, 887.92 kPa | 0.01708
333.15 K, 946.43 kPa | 0.0171
333.15 K, 1025.7 kPa | 0.01715
333.15 K, 1092.5 kPa | 0.01718
333.15 K, 1167.4 kPa | 0.01723
333.15 K, 1233.2 kPa | 0.01727
333.15 K, 1307.8 kPa | 0.01732
333.15 K, 1366.9 kPa | 0.01737
333.15 K, 1419.7 kPa | 0.0174
333.15 K, 1502.8 kPa | 0.01746
333.15 K, 1566.4 kPa | 0.01751
333.15 K, 1629.7 kPa | 0.01757
333.15 K, 1705.8 kPa | 0.01763
333.15 K, 1772.9 kPa | 0.01769
333.15 K, 1853.5 kPa | 0.01778
333.15 K, 1917.4 kPa | 0.01783
333.15 K, 1967 kPa | 0.0179
333.15 K, 2025.7 kPa | 0.01795
333.15 K, 2294.7 kPa | 0.01828
333.15 K, 2427.7 kPa | 0.01848
333.15 K, 2519.2 kPa | 0.01862
333.15 K, 2631.9 kPa | 0.0188
333.15 K, 2766.3 kPa | 0.01904
333.15 K, 2872 kPa | 0.01925
333.15 K, 3008.3 kPa | 0.01955
333.15 K, 3089.4 kPa | 0.01973
333.15 K, 3195.2 kPa | 0.02001
333.15 K, 3306.1 kPa | 0.02032
333.15 K, 3398.7 kPa | 0.0206
333.15 K, 3504 kPa | 0.02097
333.15 K, 3605.1 kPa | 0.02135
333.15 K, 3722 kPa | 0.02185
333.15 K, 3815.4 kPa | 0.02229
333.15 K, 3932.1 kPa | 0.02291
333.15 K, 4050.8 kPa | 0.0237
333.15 K, 4148.2 kPa | 0.02445
333.15 K, 4239.9 kPa | 0.02524
333.15 K, 4328.2 kPa | 0.02616
333.15 K, 4406.9 kPa | 0.02715
333.15 K, 4479.7 kPa | 0.02819
333.15 K, 4549.6 kPa | 0.02938
333.15 K, 4612.3 kPa | 0.03054
333.15 K, 4671.8 kPa | 0.03186
333.15 K, 4725.8 kPa | 0.03331
333.15 K, 4776.6 kPa | 0.03476
333.15 K, 4828.1 kPa | 0.03629
333.15 K, 4880.1 kPa | 0.03801
333.15 K, 4933.2 kPa | 0.03982
333.15 K, 4991.6 kPa | 0.0419
333.15 K, 5049 kPa | 0.04395
333.15 K, 5109.4 kPa | 0.04603
333.15 K, 5178.8 kPa | 0.04833
333.15 K, 5254.9 kPa | 0.05072
333.15 K, 5343.6 kPa | 0.05331
333.15 K, 5447.5 kPa | 0.0561
333.15 K, 5567.4 kPa | 0.05883
333.15 K, 5709.9 kPa | 0.06196
333.15 K, 5869.5 kPa | 0.06483
333.15 K, 6098.2 kPa | 0.0687
333.15 K, 6338.2 kPa | 0.07217
333.15 K, 6627.7 kPa | 0.07584
333.15 K, 6950.6 kPa | 0.07952
333.15 K, 7378.3 kPa | 0.08395
333.15 K, 7900 kPa | 0.08869
333.15 K, 8519.8 kPa | 0.09355
333.15 K, 9106.8 kPa | 0.09795
333.15 K, 9802 kPa | 0.1027
333.15 K, 10465 kPa | 0.1067
333.15 K, 11412 kPa | 0.1122
333.15 K, 12565 kPa | 0.1183
350 K, 64.67 kPa | 0.01753
350 K, 96.54 kPa | 0.01755
350 K, 117.61 kPa | 0.01755
350 K, 143.77 kPa | 0.01756
350 K, 170.68 kPa | 0.01756
350 K, 204.56 kPa | 0.01758
350 K, 238.01 kPa | 0.01759
